# Reference: patent publication US20250092360A1, “METHODS AND COMPOSITIONS FOR GENERATING SOMATOSTATIN+ INTERNEURONS FROM HUMAN FOREBRAIN NEURAL PROGENITOR CELLS” (Trailhead Biosystems Inc., priority 2023, published 2025)
# “And” between values parts separate entries of the source, which are not always exact repeats. Identical values can stand only once. “Also recorded” adds a separate entry of the source.
# B1: BDNF: brain-derived neurotrophic factor; BDNF pathway agonist (protein, UniProt P23560 129-247, looked up)
# Neurotrophic factor BDNF: HSDPARRGELSVCDSISEWVTAADKKTAVDMSGGTVTVLEKVPVSKGQLKQYFYETKCNPMGYTKEGCRGIDKRHWNSQCRTTQSYVRALTMDSKKRIGWRFIRIDTSCVCTLTIKRGR
# modifications: Neurotrophic factor BDNF
# notes: brain-derived neurotrophic factor; BDNF pathway agonist
# Key:
# [1] = test system: forebrain-committed neural progenitor cells; assay: Factor criticality analysis, stage 5 recipe; assay type: cell-based, human; details: for contribution to the expression of SST: stage 5, experiment of FIG. 28, in words; for effect on PVALB expression / effect on Somatostatin expression: stage 5, experiment of FIG. 30, in words
# Experimental: To assess the impact of elimination of each validated factor, dynamic profile analysis was again used to compare the expression levels of genes of interest in the absence of each finalized factor while the others were present in the media.
# In the stage 5 recipe, each of seven finalized factors was removed while the other six factors remained present in the media and the expression levels of SST and PVALB were assessed compared to the presence of all seven factors. […] Thus, BDNF, (−)-Indolactam-V, and 2-phosph-L-Ascorbic Acid were included in the stage 5 recipe. […] Thus, they were excluded from the recipe. […] Therefore, these effectors were included in the stage 5 recipe for SST maturation.
# [2] = test system: forebrain-committed neural progenitor cells; assay: HD-DoE stage 5, 8-factor experiment (JQ1, Indolactam-V ...): Somatostatin expression; assay type: cell-based, human; details: for impact on expression of Somatostatin: FIG. 21/22, in words; for factor contribution, expression of Somatostatin: positive, 8-factor experiment of FIG. 21
# Experimental: To further guide the differentiation of forebrain-committed neural progenitor cells to somatostatin interneuron cells at stage 5, HD-DoE experiments were performed for 3 days after termination of stage 4 treatment. At this time, we focused on maximum expression of SST that was expressed in Somatostatin (+) interneurons and minimum expression of Parvalbumin that is another type of interneurons. This 8-factor experiment included JQ1, (−)-Indolactam-V, Oleic acid, BDNF, IGF-1, 2-phospho-L-Ascorbic acid, Albumax, MK2206. When the model was maximized for expression of Somatostatin, six effectors were identified that could increase its expression levels, including (−)-Indolactam-V, Oleic acid, BDNF, 2-phospho-L-ascorbic acid, Albumax, and MK2206, as shown in FIG. 21. Using dynamic profile analysis, the results of which are shown in FIG. 22, the model was modified to achieve the maximum expression level of Somatostatin and therefore (−)-Indolactam-V, BDNF, and 2-phospho-L-ascorbic acid were included while JQ-1, Oleic acid, Albumax and MK2206 were excluded. Considering the model at different optimization settings for maximum differentiation of cells toward ventral forebrain, the recipe for stage 5 of differentiation included (−)-Indolactam-V, BDNF, IGF-1, and 2-phospho-L-ascorbic acid from this HD-Doe experiment.
# [3] = test system: forebrain-committed neural progenitor cells; assay: HD-DoE stage 5, 12-factor experiment (96 combinatorial media): Somatostatin expression; assay type: cell-based, human; details: for impact on expression of Somatostatin: FIG. 26 dynamic profile, in words; for factor contribution, expression of Somatostatin: positive, 12-factor experiment of FIG. 25
# Experimental: In another HD-DoE experiment, the results of which are shown in FIG. 25, cells were differentiated in 96 different combinatorial media made of 12 factors. These cells were treated with stage 1 to stage 4 medium for a total of 12 days prior to the experiment. […] In this model, we focused on maximum expression of Somatostatin gene expressed in somatostatin (+) interneurons. When the model was optimized for maximum expression of Somatostatin, BDNF, 2-phosph-L-Ascorbic Acid, O-LPA, N2 and Prostratin had the highest factor contributions, 1.75, 10.6, 2.7, 9.2 and 6.4 respectively. […]
# [4] = test system: forebrain-committed neural stem cells; assay: HD-DoE stage 2, 12-factor experiment: NKX2-1 expression; assay type: cell-based, human; details: for impact on expression of NKX2-1: model / dynamic profile, in words
# Experimental: To further guide the differentiation of forebrain-committed neural stem cells to ventral forebrain neural stem cells at stage 2, a HD-DoE experiment was performed for 3 days after termination of stage 1 treatment. […] This 12-factor experiment included LDN193189, BMP7, PD0325901, MK2206, A8301, XAV939, CHIR99021, Purmorphamine, SANT-1, AGN193109, TTNPB and GSI-XX. […]
# [5] = test system: human pluripotent stem cells; assay: HD-DoE stage 1, first 12-factor experiment: gene expression (qPCR) after 3-day treatment; assay type: cell-based
# From the text: This example utilizes a method of High-Dimensional Design of Experiments (HD-DoE), as previously described in Bukys et al. (2020) […] 23:101346. The method employs computerized design geometries to simultaneously test multiple process inputs and offers mathematical modeling of a deep effector/response space. The method allows for finding combinatorial signaling inputs that control a complex process, such as during cell differentiation. It allows testing of multiple plausible critical process parameters, as such parameters impact output responses, such as gene expression. Because gene expression provides hallmark features of the phenotype of, for example, a human cell, the method can be applied to identify, and understand, which signaling pathways control cell fate. In the current example, the HD-DOE method was applied with the intent to find conditions for induction of […] neural progenitor-expressed genes, directly from the pluripotent stem cell state. To develop the recipe for each stage, the impact of agonists and antagonists of multiple signaling pathways (herein called effectors) on the expression of two sets of 53 pre-selected genes, after a 3-day treatment, has been tested and modeled. These effectors are small molecules or proteins that are commonly used during stepwise differentiation of stem cells to specific fates. Choice of the effectors were based on current literature on neural induction in forebrain region of developing brain and differentiation of stem cells to neural progenitors. To test the effectors, experiments with at least 8 factors were designed that can assess the response of cells to 48 or more different combinations of effectors in a range of concentrations. To analyze the models, we focused on expression of genes involved in development and patterning of the anterior neuroectoderm and forebrain including OTX2 (Hoch et al. (2015) Cell Reports 12:482-494), SIX3 (Lagutin et al. (2003) Genes & Development 17:368-379) and FEZF2 (Zhang et al. (2014) Development 141:4794-[…]). At later stages we focused on dorsoventral patterning of telencephalon and gene expressed in ventral forebrain including NKX2-1 and absence of PAX6 which is a dorsal forebrain marker (Stoykova et al. (2000) J. Neurosci. 20:8042-8050). The impact of each effector on gene expression level is defined by a parameter called factor contribution that is calculated for each effector during the modeling. To identify the recipe for stage 1 of differentiation, 96 different combinations of effectors generated using Design-of-Experiments compression through D-optimality were robotically prepared. The effector combinations were prepared in a basal media and were subsequently added to the cells, which were then allowed to differentiate. Three days later RNA extraction was performed, and gene expression was obtained using quantitative PCR analysis. The data were normalized and modeled using partial least squares regression analysis to the effector design, resulting in the generation of gene-specific models, which after model tuning for maximal Q2 predictive power, provided explanation of the effectors ability to control the expression of individual genes, combinatorically, and individually. Solutions within the tested space could then be explored to address desirability. Optimizing for maximal expression of SIX3 at 3300 and FEZF2 1355 expression values led to robust solutions. This model was derived from testing 12 effectors including AGN193109, LDN193189, CHIR99021, XAV939, IGF2, Purmorphamine, 4-oxo-RA, TTNPB, SR11237, FGF8, PD0325901 and […]. […] The model was also optimized for maximum expression of FEZF2 separately at 3576 expression value to find any additional factors that can boost expression of forebrain genes. […] To find the set of factors that have the potential to optimize all 3 genes in this experiment, a new assessment was done through dynamic profile analysis with focus on maximal expression of OTX2, FEZF2 and SIX3.
# [6] = test system: forebrain-committed neural progenitor cells; assay: HD-DoE stage 5, 8-factor experiment (GDNF, BDNF, NT-3 ...): Somatostatin expression; assay type: cell-based, human
# Experimental: To investigate the effects of other factors on differentiation of forebrain-committed neural progenitor cells to Somatostatin interneuron cells, an additional HD-DoE experiment was performed for 3 days on cells that were treated with stage 1 to stage 4 medium for a total of 12 days prior to the new experiment. This experiment, the results of which are shown in FIG. 23, included eight effectors, GDNF, BDNF, NT-3, ß-NGF, Linoleic acid, 5-Cholesten-3β, LIF and TGF-β3. In this model, we focused on maximum expression of Somatostatin gene expressed in Somatostatin (+) interneurons (Urban-Ciecko and Barth (2016) Nature Reviews Neurosci. 17:401-409). When the model was optimized for maximum expression of Somatostatin, BDNF, NT-3, beta-NGF and Linoleic acid had the highest factor contributions, 25.7, 2, 19.9, 23.5, respectively.
# Therefore, the latter were excluded in the recipe.
molecule,measurement,setting,value
O=C1O[C@H]([C@@H](O)CO)C(O)=C1OP(=O)(O)O [2-phospho-L-ascorbic acid],contribution to the expression of SST,[1],positive contributions
same,effect on PVALB expression,[1],not to PVALB expression
same,effect on Somatostatin expression,[1],contribute
same,impact on expression of Somatostatin,[2],increase
same,impact on expression of Somatostatin,[2]; listed as 2-phospho-L-Ascorbic acid,positive impact
same,"factor contribution, expression of Somatostatin",[2],4
same,impact on expression of Somatostatin,[3]; listed as 2-phosph-L-Ascorbic Acid,significant positive effect; also recorded: positive impact
same,"factor contribution, expression of Somatostatin",[3],10.6
Cc1cc(SCc2sc(-c3ccc(C(F)(F)F)c(F)c3)nc2C)ccc1OCC(=O)O [GW0742],impact on expression of Somatostatin,[3],significant negative impact
CCCCCCCC/C=C\CCCCCCCC(=O)OC[C@@H](O)COP(=O)(O)O [O-LPA],"factor contribution, expression of Somatostatin",[3],2.7
CCCCCCCC/C=C\CCCCCCCC(=O)O [Oleic acid],impact on expression of Somatostatin,[2],increase; also recorded: positive impact
same,"factor contribution, expression of Somatostatin",[2],7.4
CC(=O)O[C@@]12C[C@@H](C)[C@@]3(O)[C@@H](C=C(CO)C[C@]4(O)C(=O)C(C)=C[C@@H]34)[C@@H]1C2(C)C [Prostratin],effect on PVALB expression,[1],not to PVALB expression
same,effect on Somatostatin expression,[1],contribute
same,impact on expression of Somatostatin,[3],significant positive effect; also recorded: positive impact
same,"factor contribution, expression of Somatostatin",[3],6.4
Cc1nn(-c2ccccc2)c(C)c1/C=N/N1CCN(Cc2ccccc2)CC1 [SANT-1],impact on expression of NKX2-1,[4],negative impact
same,"factor contribution, expression of NKX2-1","[4]; negative role, model optimized for maximum NKX2-1",26.3
CC(=O)C(=O)[O-].[Na+] [Sodium Pyruvate],impact on expression of Somatostatin,[3],significant negative impact
C/C(=C\c1ccc(C(=O)O)cc1)c1ccc2c(c1)C(C)(C)CCC2(C)C [TTNPB],impact on expression of NKX2-1,[4],negative impact
same,"factor contribution, important input for high expression of SIX3",[5]; FIG. 2 legend,23.7
same,impact on expression of OTX2,"[5]; dynamic profile / model, in words",negative impact
same,impact on expression of SIX3,"[5]; dynamic profile analysis, in words",negative impact
same,"factor contribution, expression of SIX3","[5]; negative effect, model optimized for maximal SIX3",21
same,"factor contribution, expression of OTX2","[5]; negative impact, model optimized for maximum OTX2",29 and 28.8
same,"factor contribution, expression of FEZF2","[5]; positive impact, model optimized for maximum FEZF2 at 3576",24
COC(=O)CCC(=O)C(=O)OC [dm-αKG],impact on expression of Somatostatin,[3],significant negative impact
(−)-Indolactam-V,contribution to the expression of SST,[1],positive contributions
same,impact on expression of Somatostatin,[2],increase; also recorded: positive impact
same,"factor contribution, expression of Somatostatin",[2],5.2
B1,impact on expression of Somatostatin,"[6]; FIG. 24 dynamic profile, in words",significant effect; also recorded: positive effect; also recorded: positive impact
same,"factor contribution, expression of Somatostatin","[6]; positive, 8-factor experiment of FIG. 23",25.7
same,contribution to the expression of SST,[1],positive contributions
same,effect on expression of Somatostatin,"[1]; stage 5, experiment of FIG. 29, in words",contribute to the maximal expression
same,effect on PVALB expression,[1],not to PVALB expression
same,effect on Somatostatin expression,[1],contribute
same,impact on expression of Somatostatin,[2],increase; also recorded: positive impact
same,"factor contribution, expression of Somatostatin",[2],8.1
same,impact on expression of Somatostatin,[3],significant positive effect; also recorded: positive impact
same,"factor contribution, expression of Somatostatin",[3],1.75 and 1.7
